Reference: patent US12173020B2, “New-type oxazolidinone compounds and preparation method therefor” (priority 2019, dated 2024)

Key:
[1] = test system: vancomycin-resistant Enterococcus (VRE); test: agar dilution method, inhibitory effect on VRE; type: cell-based; settings: for MIC50: Enterococcus, read-out: Minimum inhibitory concentration (MIC50, μg/ml) VRE
Description: (§1) In order to determine the antibacterial activity of these new oxazolidinone-based compounds, an agar dilution method was used to test the inhibitory effect on methicillin-resistant Staphylococcus aureus (MRSA) and vancomycin-resistant Enterococcus (VRE). The bacteria inhibition effect was expressed as minimum inhibitory concentration (MIC50, μg/ml) The test results are shown in the following table.

[2] = test system: methicillin-resistant Staphylococcus aureus (MRSA); test: agar dilution method, inhibitory effect on MRSA; type: cell-based; settings: for MIC50: Staphylococcus aureus, read-out: Minimum inhibitory concentration (MIC50, μg/ml) MRSA
Description: as §1

Compound	Minimum inhibitory concentration (MIC50, μg/ml) VRE [1] [µg/mL]	Minimum inhibitory concentration (MIC50, μg/ml) MRSA [2] [µg/mL]	MIC50 [1] [µg/mL]	MIC50 [2] [µg/mL]
CCCn1nnc(-c2ccc(-c3ccc(N4C[C@@H](C(O)C5CC5)OC4=O)cc3F)cn2)n1.O=P(O)(O)O (stereo partly drawn) [compound 144, (S)-3-(3-fluoro-4-(6-(2-propyl-2H-tetrazol-5-yl)pyridin-3-yl)phenyl)-5-(1-hydroxy-1-cyclopropylmethyl) oxazolidin-2-one phosphate]			0.4	0.4
CCC(O)[C@H]1CN(c2ccc(-c3ccc(-c4nnn(CC)n4)nc3)c(F)c2)C(=O)O1.O=P(O)(O)O (stereo partly drawn) [compound 99, (R)-3-(3-fluoro-4-(6-(2-ethyl-2H-tetrazol-5-yl)pyridin-3-yl)phenyl)-5-(1-hydroxypropyl) oxazolidin-2-one phosphate]			0.2	0.2
CC(O)[C@@H]1CN(c2ccc(-c3ccc(-c4nnn(C)n4)nc3)c(F)c2)C(=O)O1.O=P(O)(O)O (stereo partly drawn) [compound 88, (S)-3-(3-fluoro-4-(6-(2-methyl-2H-tetrazol-5-yl)pyridin-3-yl)phenyl)-5-(1-hydroxyethyl) oxazolidin-2-one phosphate]			0.5	0.5
C=Cn1nnc(-c2ccc(-c3ccc(N4C[C@H](C(O)C(F)(F)F)OC4=O)cc3F)cn2)n1.O=P(O)(O)O (stereo partly drawn) [compound 119, (R)-3-(3-fluoro-4-(6-(2-vinyl-2H-tetrazol-5-yl)pyridin-3-yl)phenyl)-5-(1-hydroxy-2-trifluoroethyl) oxazolidin-2-one phosphate]	0.7	0.7		
O=C1O[C@H](CO)CN1c1ccc(-c2ccc(-c3nnn(C4CC4)n3)nc2)c(F)c1.O=P(O)(O)O [compound 84, (S)-3-(3-fluoro-4-(6-(2-cyclopropyl-2H-tetrazol-5-yl)pyridin-3-yl)phenyl)-5-(hydroxymethyl) oxazolidin-2-one phosphate]			0.4	0.4
O=C1O[C@@H](C(O)F)CN1c1ccc(-c2ccc(-c3nnn(C4CC4)n3)nc2)c(F)c1.O=P(O)(O)O (stereo partly shown) [compound 117]	0.4	0.4		
C=Cn1nnc(-c2ccc(-c3ccc(N4C[C@H](C(C)O)OC4=O)cc3F)cn2)n1.O=P(O)(O)O (stereo partly drawn) [compound 121, (R)-3-(3-fluoro-4-(6-(2-vinyl-2H-tetrazol-5-yl)pyridin-3-yl)phenyl)-5-(1-hydroxyethyl) oxazolidin-2-one phosphate]			1.1	1.1
C=Cn1nnc(-c2ccc(-c3ccc(N4C[C@@H](C(O)CC)OC4=O)cc3F)cn2)n1.O=P(O)(O)O (stereo partly drawn) [compound 124, (S)-3-(3-fluoro-4-(6-(2-vinyl-2H-tetrazol-5-yl)pyridin-3-yl)phenyl)-5-(1-hydroxypropyl) oxazolidin-2-one phosphate]			0.2	0.2
C=Cn1nnc(-c2ccc(-c3ccc(N4C[C@H](C(OP(=O)(O)O)C(F)F)OC4=O)cc3F)cn2)n1 (stereo partly drawn) [compound 151, (R)-3-(3-fluoro-4-(6-(2-vinyl-2H-tetrazol-5-yl)pyridin-3-yl)phenyl)-5-(1-hydroxy-2-difluoroethyl) oxazolidin-2-one phosphate]	0.6	0.8		
O=C1O[C@@H](C(O)C(F)(F)F)CN1c1ccc(-c2ccc(-c3nnn(C4CC4)n3)nc2)c(F)c1.O=P(O)(O)O (stereo partly drawn) [compound 111, (R)-3-(3-fluoro-4-(6-(2-cyclopropyl-2H-tetrazol-5-yl)pyridin-3-yl)phenyl)-5-(1-hydroxy-2-trifluoroethyl) oxazolidin-2-one phosphate]	0.3	0.3		
CCC(O)[C@@H]1CN(c2ccc(-c3ccc(-c4nnn(CC)n4)nc3)c(F)c2)C(=O)O1.O=P(O)(O)O (stereo partly drawn) [compound 100, (S)-3-(3-fluoro-4-(6-(2-ethyl-2H-tetrazol-5-yl)pyridin-3-yl)phenyl)-5-(1-hydroxypropyl) oxazolidin-2-one phosphate]			0.3	0.2
C=Cn1nnc(-c2ccc(-c3ccc(N4C[C@H](CO)OC4=O)cc3F)cn2)n1.O=P(O)(O)O [compound 85, (R)-3-(3-fluoro-4-(6-(2-vinyl-2H-tetrazol-5-yl)pyridin-3-yl)phenyl)-5-(hydroxymethyl) oxazolidin-2-one phosphate]			0.2	0.2
O=C1O[C@H](C(O)C2CC2)CN1c1ccc(-c2ccc(-c3nnn(C4CC4)n3)nc2)c(F)c1.O=P(O)(O)O (stereo partly drawn) [compound 150, (S)-3-(3-fluoro-4-(6-(2-cyclopropyl-2H-tetrazol-5-yl)pyridin-3-yl)phenyl)-5-(1-hydroxy-1-cyclopropylmethyl) oxazolidin-2-one phosphate]			0.2	0.2
Cn1nnc(-c2ccc(-c3ccc(N4C[C@@H](C(O)CF)OC4=O)cc3F)cn2)n1.O=P(O)(O)O (stereo partly drawn) [compound 130, (S)-3-(3-fluoro-4-(6-(2-methyl-2H-tetrazol-5-yl)pyridin-3-yl)phenyl)-5-(1-hydroxy-2-fluoroethyl) oxazolidin-2-one phosphate]			0.2	0.2
CCn1nnc(-c2ccc(-c3ccc(N4C[C@@H](C(O)F)OC4=O)cc3F)cn2)n1.O=P(O)(O)O (stereo partly drawn) [compound 102, (S)-3-(3-fluoro-4-(6-(2-ethyl-2H-tetrazol-5-yl)pyridin-3-yl)phenyl)-5-(hydroxyfluoromethyl) oxazolidin-2-one phosphate]			0.2	0.2

Continued, values first:

Minimum inhibitory concentration (MIC50, μg/ml) VRE [1] [µg/mL]	Minimum inhibitory concentration (MIC50, μg/ml) MRSA [2] [µg/mL]	MIC50 [1] [µg/mL]	MIC50 [2] [µg/mL]	Compound
0.9	0.8			CCCn1nnc(-c2ccc(-c3ccc(N4C[C@H](C(OP(=O)(O)O)C(F)F)OC4=O)cc3F)cn2)n1 (stereo partly drawn) [compound 139, (R)-3-(3-fluoro-4-(6-(2-propyl-2H-tetrazol-5-yl)pyridin-3-yl)phenyl)-5-(1-hydroxy-2-difluoroethyl) oxazolidin-2-one phosphate]
		1.3	1.4	CCCn1nnc(-c2ccc(-c3ccc(N4C[C@H](C(C)O)OC4=O)cc3F)cn2)n1.O=P(O)(O)O (stereo partly drawn) [compound 105, (R)-3-(3-fluoro-4-(6-(2-propyl-2H-tetrazol-5-yl)pyridin-3-yl)phenyl)-5-(1-hydroxyethyl) oxazolidin-2-one phosphate]
0.3	0.2			CCC(OP(=O)(O)O)[C@@H]1CN(c2ccc(-c3ccc(-c4nnn(C5CC5)n4)nc3)c(F)c2)C(=O)O1 (stereo partly drawn) [compound 116, (S)-3-(3-fluoro-4-(6-(2-cyclopropyl-2H-tetrazol-5-yl)pyridin-3-yl)phenyl)-5-(1-hydroxypropyl)) oxazolidin-2-one phosphate]
		0.4	0.4	CCC(O)[C@H]1CN(c2ccc(-c3ccc(-c4nnn(C)n4)nc3)c(F)c2)C(=O)O1.O=P(O)(O)O (stereo partly drawn) [compound 89, (R)-3-(3-fluoro-4-(6-(2-methyl-2H-tetrazol-5-yl)pyridin-3-yl)phenyl)-5-(1-hydroxypropyl) oxazolidin-2-one phosphate]
		1.2	1.2	CCCn1nnc(-c2ccc(-c3ccc(N4C[C@H](CO)OC4=O)cc3F)cn2)n1.O=P(O)(O)O [compound 81, (R)-3-(3-fluoro-4-(6-(2-propyl-2H-tetrazol-5-yl)pyridin-3-yl)phenyl)-5-(hydroxymethyl) oxazolidin-2-one phosphate]
		0.3	0.4	CCn1nnc(-c2ccc(-c3ccc(N4C[C@H](C(O)CF)OC4=O)cc3F)cn2)n1.O=P(O)(O)O (stereo partly drawn) [compound 135, (R)-3-(3-fluoro-4-(6-(2-ethyl-2H-tetrazol-5-yl)pyridin-3-yl)phenyl)-5-(1-hydroxy-2-fluoroethyl) oxazolidin-2-one phosphate]
		1.2	1.2	CCCn1nnc(-c2ccc(-c3ccc(N4C[C@@H](CO)OC4=O)cc3F)cn2)n1.O=P(O)(O)O [compound 82, (S)-3-(3-fluoro-4-(6-(2-propyl-2H-tetrazol-5-yl)pyridin-3-yl)phenyl)-5-(hydroxymethyl) oxazolidin-2-one phosphate]
0.3	0.3			CCn1nnc(-c2ccc(-c3ccc(N4C[C@H](C(O)C(F)(F)F)OC4=O)cc3F)cn2)n1.O=P(O)(O)O (stereo partly drawn) [compound 95, (R)-3-(3-fluoro-4-(6-(2-ethyl-2H-tetrazol-5-yl)pyridin-3-yl)phenyl)-5-(1-hydroxy-2-trifluoroethyl) oxazolidin-2-one phosphate]
		2	2	CCC(O)[C@@H]1CN(c2ccc(-c3ccc(-c4nnn(C)n4)nc3)c(F)c2)C(=O)O1.O=P(O)(O)O (stereo partly drawn) [compound 90, (S)-3-(3-fluoro-4-(6-(2-methyl-2H-tetrazol-5-yl)pyridin-3-yl)phenyl)-5-(1-hydroxypropyl) oxazolidin-2-one phosphate]
0.6	0.6			O=C1O[C@H](C(F)OP(=O)(O)O)CN1c1ccc(-c2ccc(-c3nnn(C4CC4)n3)nc2)c(F)c1 (stereo partly drawn) [compound 118, (S)-3-(3-fluoro-4-(6-(2-cyclopropyl-2H-tetrazol-5-yl)pyridin-3-yl)phenyl)-5-(hydroxyfluoromethyl)) oxazolidin-2-one phosphate]
		0.4	0.4	C=Cn1nnc(-c2ccc(-c3ccc(N4C[C@@H](C(O)C5CC5)OC4=O)cc3F)cn2)n1.O=P(O)(O)O (stereo partly drawn) [compound 156, (S)-3-(3-fluoro-4-(6-(2-vinyl-2H-tetrazol-5-yl)pyridin-3-yl)phenyl)-5-(1-hydroxy-1-cyclopropylmethyl) oxazolidin-2-one phosphate]
